Among the data in ChEMBL document CHEMBL1158077, “Microbial transformation and butyrylcholinesterase inhibitory activity of (-)-caryophyllene oxide and its derivatives” (J Nat Prod, 2006) are IC50 values, retold here.

This test has as its target Cholinesterase (Equus caballus, UniProt P81908). The test is described as follows: Inhibition of horse serum BuChE by Ellman's method. A general note: In Ellman's method for cholinesterases, released thiocholine reacts with DTNB.

Broadly, the IC50 is the concentration needed to halve the response being measured.

Cholinesterase, sequence (P81908 whole entry): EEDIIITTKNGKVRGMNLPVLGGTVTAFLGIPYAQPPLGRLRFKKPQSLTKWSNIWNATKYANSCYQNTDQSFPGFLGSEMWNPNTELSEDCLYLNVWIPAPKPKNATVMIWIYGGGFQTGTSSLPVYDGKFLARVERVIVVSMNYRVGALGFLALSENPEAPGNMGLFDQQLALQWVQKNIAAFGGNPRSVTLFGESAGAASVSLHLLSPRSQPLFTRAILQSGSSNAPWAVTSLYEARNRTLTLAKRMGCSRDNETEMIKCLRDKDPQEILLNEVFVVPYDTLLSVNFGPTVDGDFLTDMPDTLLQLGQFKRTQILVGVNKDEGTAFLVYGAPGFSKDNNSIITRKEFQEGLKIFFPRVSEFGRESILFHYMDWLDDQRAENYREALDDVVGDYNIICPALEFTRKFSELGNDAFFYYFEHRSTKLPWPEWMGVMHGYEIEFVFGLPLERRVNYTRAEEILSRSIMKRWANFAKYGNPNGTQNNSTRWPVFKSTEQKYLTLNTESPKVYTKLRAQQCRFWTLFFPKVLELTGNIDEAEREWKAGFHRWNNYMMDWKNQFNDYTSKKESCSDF

`C=C1CC[C@@H]2O[C@]2(C)CC[C@@H]2[C@@H]1CC2(C)C` registered an IC50 of 208 µM. Regarding `C=C1CC[C@H]2O[C@]2(C)CC[C@@H]2[C@@H]1C[C@]2(C)CO`, 10.9 µM corresponded to half-maximal inhibition (IC50). `CC1(C)C[C@@H]2C(=O)CC[C@H]3O[C@]3(C)C[C@H](O)[C@H]21`: the IC50 amounted to 459 µM. `CC1(C)C[C@H]2[C@H]1CC[C@]1(C)[C@H](O)CC[C@@]2(O)[C@H]1O`: half-maximal inhibition (IC50) was put at 23.6 µM. `CC1(C)C[C@H](O)[C@]23CC[C@@H](O)[C@](C)(CC[C@@H]12)C3` registered an IC50 of 456 µM.

`C=C1CC[C@H]2O[C@]2(C)CC[C@@H]2[C@@H]1C[C@@]2(C)CO` yielded an IC50 of 189 µM.

As to `CC1(C)C[C@@H]2[C@@H](CO)CC[C@H]3O[C@]3(C)CC[C@H]21`, half-maximal inhibition (IC50) required 26.4 µM.

In turn, `C=C1CC[C@@H](O)[C@](C)(O)CC[C@@H]2[C@@H]1CC2(C)C` returned an IC50 of 44 µM. In turn, `CC1(C)C[C@H](O)[C@]23CC[C@@H](O)[C@](CO)(CC[C@@H]12)C3` came in with an IC50 of 43.6 µM. For `CC1(C)C[C@@H]2[C@@H](CO)CC[C@H]3O[C@]3(C)[C@H](O)C[C@H]21` the value was 155 µM.
